# Reference: BindingDB's records for doi:10.1021/jm980131z (Boehringer Ingelheim (Canada), 1998)
# Target: Human cytomegalovirus protease (Human herpesvirus 5)
# Test: Inhibitory activity against human cytomegalovirus (HCMV) protease
row,SMILES,IC50 [µM]
1,CC1(C)C(=O)N(C(=O)NCc2ccncc2)[C@@H]1Cc1ccccc1,> 300
2,"CS[C@@H]1C(=O)N(C(=O)NCc2ccncc2)[C@H]1Cc1ccccc1 [(2S,3S)-2-Benzyl-3-methylsulfanyl-4-oxo-azetidine-1-carboxylic acid (pyridin-4-ylmethyl)-amide]",6.9
3,C[C@@H](NC(=O)N1C(=O)C[C@H]1Cc1ccccc1)c1ccccc1 [(R)-2-Benzyl-4-oxo-azetidine-1-carboxylic acid ((R)-1-phenyl-ethyl)-amide],> 75
4,"CC1(C)C(=O)N(C(=O)NCc2ccncc2)[C@H]1Cc1ccccc1 [(S)-2-Benzyl-3,3-dimethyl-4-oxo-azetidine-1-carboxylic acid (pyridin-4-ylmethyl)-amide]",> 75
5,CC(=O)Nc1ccc(CN(C)C(=O)N2C(=O)C[C@@H]2Cc2ccccc2)cc1 [(S)-2-Benzyl-4-oxo-azetidine-1-carboxylic acid (4-acetylamino-benzyl)-methyl-amide],17
6,CN(Cc1ccc(N)cc1)C(=O)N1C(=O)C[C@@H]1Cc1ccccc1 [(S)-2-Benzyl-4-oxo-azetidine-1-carboxylic acid (4-amino-benzyl)-methyl-amide],20
7,CN(Cc1ccc(Cl)cc1)C(=O)N1C(=O)C[C@@H]1Cc1ccccc1 [(S)-2-Benzyl-4-oxo-azetidine-1-carboxylic acid (4-chloro-benzyl)-methyl-amide],6.9
8,CN(Cc1ccc(C#N)cc1)C(=O)N1C(=O)C[C@@H]1Cc1ccccc1 [(S)-2-Benzyl-4-oxo-azetidine-1-carboxylic acid (4-cyano-benzyl)-methyl-amide],6
9,O=C1C[C@H](Cc2ccccc2)N1C(=O)Nc1ccc(F)cc1 [(S)-2-Benzyl-4-oxo-azetidine-1-carboxylic acid (4-fluoro-phenyl)-amide],3.7
10,CC(C)c1ccc(CN(C)C(=O)N2C(=O)C[C@@H]2Cc2ccccc2)cc1 [(S)-2-Benzyl-4-oxo-azetidine-1-carboxylic acid (4-isopropyl-benzyl)-methyl-amide],6.4
11,COc1ccc(NC(=O)N2C(=O)C[C@@H]2Cc2ccccc2)cc1 [(S)-2-Benzyl-4-oxo-azetidine-1-carboxylic acid (4-methoxy-phenyl)-amide],3.9
12,CCC[C@@H](NC(=O)N1C(=O)C[C@@H]1Cc1ccccc1)c1ccccc1 [(S)-2-Benzyl-4-oxo-azetidine-1-carboxylic acid ((R)-1-phenyl-butyl)-amide],3.4
13,C[C@@H](NC(=O)N1C(=O)C[C@@H]1Cc1ccccc1)c1ccccc1 [(S)-2-Benzyl-4-oxo-azetidine-1-carboxylic acid ((R)-1-phenyl-ethyl)-amide],4
14,CC[C@@H](NC(=O)N1C(=O)C[C@@H]1Cc1ccccc1)c1ccccc1 [(S)-2-Benzyl-4-oxo-azetidine-1-carboxylic acid ((R)-1-phenyl-propyl)-amide],2.6
15,C[C@H](NC(=O)N1C(=O)C[C@@H]1Cc1ccccc1)c1ccccc1 [(S)-2-Benzyl-4-oxo-azetidine-1-carboxylic acid ((S)-1-phenyl-ethyl)-amide],42
16,O=C1C[C@H](Cc2ccccc2)N1C(=O)NCc1ccccn1 [(S)-2-Benzyl-4-oxo-azetidine-1-carboxylic acid (pyridin-2-ylmethyl)-amide],33
17,O=C1C[C@H](Cc2ccccc2)N1C(=O)NCc1cccnc1 [(S)-2-Benzyl-4-oxo-azetidine-1-carboxylic acid (pyridin-3-ylmethyl)-amide],10
18,O=C1C[C@H](Cc2ccccc2)N1C(=O)NCc1ccncc1 [(S)-2-Benzyl-4-oxo-azetidine-1-carboxylic acid (pyridin-4-ylmethyl)-amide],12
19,O=C1C[C@H](Cc2ccccc2)N1C(=O)N(Cc1ccccc1)OCc1ccccc1 [(S)-2-Benzyl-4-oxo-azetidine-1-carboxylic acid benzyl-benzyloxy-amide],13
20,O=C1C[C@H](Cc2ccccc2)N1C(=O)N(Cc1ccccc1)C1CC1 [(S)-2-Benzyl-4-oxo-azetidine-1-carboxylic acid benzyl-cyclopropyl-amide],> 75
21,CON(Cc1ccccc1)C(=O)N1C(=O)C[C@@H]1Cc1ccccc1 [(S)-2-Benzyl-4-oxo-azetidine-1-carboxylic acid benzyl-methoxy-amide],6.2
22,O=C1C[C@H](Cc2ccccc2)N1C(=O)NCc1ccccc1 [(S)-2-Benzyl-4-oxo-azetidine-1-carboxylic acid benzylamide],10
23,O=C1C[C@H](Cc2ccccc2)N1C(=O)NC1CCCCC1 [(S)-2-Benzyl-4-oxo-azetidine-1-carboxylic acid cyclohexylamide],8.4
24,CN(Cc1ccccc1[N+](=O)[O-])C(=O)N1C(=O)C[C@@H]1Cc1ccccc1 [(S)-2-Benzyl-4-oxo-azetidine-1-carboxylic acid methyl-(2-nitro-benzyl)-amide],11
25,CN(Cc1cccc([N+](=O)[O-])c1)C(=O)N1C(=O)C[C@@H]1Cc1ccccc1 [(S)-2-Benzyl-4-oxo-azetidine-1-carboxylic acid methyl-(3-nitro-benzyl)-amide],6.9
26,Cc1ccc(CN(C)C(=O)N2C(=O)C[C@@H]2Cc2ccccc2)cc1 [(S)-2-Benzyl-4-oxo-azetidine-1-carboxylic acid methyl-(4-methyl-benzyl)-amide],8.9
27,CN(Cc1ccc([N+](=O)[O-])cc1)C(=O)N1C(=O)C[C@@H]1Cc1ccccc1 [(S)-2-Benzyl-4-oxo-azetidine-1-carboxylic acid methyl-(4-nitro-benzyl)-amide],1.5
28,CN(Cc1ccc(S(=O)(=O)C(F)(F)F)cc1)C(=O)N1C(=O)C[C@@H]1Cc1ccccc1 [(S)-2-Benzyl-4-oxo-azetidine-1-carboxylic acid methyl-(4-trifluoromethanesulfonyl-benzyl)-amide],4.3
29,CN(Cc1ccc(SC(F)(F)F)cc1)C(=O)N1C(=O)C[C@@H]1Cc1ccccc1 [(S)-2-Benzyl-4-oxo-azetidine-1-carboxylic acid methyl-(4-trifluoromethylsulfanyl-benzyl)-amide],6.9
30,Cc1ccc(NC(=O)N2C(=O)C[C@@H]2Cc2ccccc2)cc1 [(S)-2-Benzyl-4-oxo-azetidine-1-carboxylic acid p-tolylamide],5.2
